# In US20100056519A1, “COMPOSITION AND METHOD FOR REDUCING PLATELET ACTIVATION AND FOR THE TREATMENT OF THROMBOTIC EVENTS” (priority 2008, published 2010):
# Assays:
# Format in all cases: cell-based, human
# [1] = system: platelets; assay: Whole blood (impedance) aggregation with 1 μg/ml collagen; details: Mean ± SD
# Experimental: (§1) The methodology employed was conventional aggregation induced by 5 μM ADP, 1 μg/ml collagen, 10 μM TRAP, whole blood aggregation with 1 μg/ml collagen, Ultegra, and PFA-100 Analyzers, expression of 14 intact, and TRAP-stimulated major receptors by whole blood flow cytometry were utilized to assess platelet activity after preincubation with escalating concentrations of E5555 (20 ng/ml, 50 ng/ml, and 100 ng/ml). The experiments were performed in healthy volunteers, CAD patients treated with ASA, and CAD patients treated with ASA and clopidogrel combination (n=10, for each group).
# (§2) An Informed Consent was obtained from all volunteers. Drug users were excluded from data analysis. The study was approved by Quorum Institutional Review Board. All subjects underwent blood sampling after at least 30 minutes of rest and two or more hours of fasting. Blood (28 ml) was drawn between 8 and 10 a.m. in order to avoid any diurnal influence and sampled from an antecubital vein using a 21-gauge butterfly needle containing 3.2% sodium citrate (1:9 volume) after having discarded the first 1.5 ml of free running blood. Four Vacutainer tubes (7.0 ml) were collected for a total of 28 ml of whole blood-citrate mixture from each study participant. Chronologically, blood samples were delivered to the core laboratory facility within 45 minutes after drawing. Then all tubes of blood-citrate mixture were pooled. One portion of pooled blood (5 ml) was kept as an internal control and pretreated with the vehicle. The remaining blood (23 ml) was used for the in vitro exposure to E5555 at concentrations of 20 ng/ml, 50 ng/ml, and 100 ng/ml. […] The platelet aggregation studies, Rapid Analyzers measures, and flow cytometry preparations were initiated within no more than 110 minutes following the blood draw, incubation with the drug, and preparation of the samples.
# Whole blood aggregation was determined using a Chronolog device 592A. The whole blood-citrate mixture was diluted 1:1 with 0.5 ml phosphate buffered saline and gently swirled. The sample then was allowed to warm to 37° C. for 5 minutes then transferred to the assay well. The electrode was then placed in the cuvette and the sample was stimulated with 1 μg/ml collagen. The change in electrical impedance was digitally recorded. Each whole blood sample was analyzed utilizing 2 different clinical devices: • (1) a Rapid Platelet-Function Assay (Ultegra®) (Accumetrics, Inc., San Diego, Calif.), which is a rapid platelet-function assay aspirin cartridge test with TRAP used as agonist. Polystyrene beads coated with fibrinogen are placed in a cartridge along with the peptide that activates thrombin receptor. Anticoagulated whole blood was added to the cartridge, and agglutination between platelets and coated beads was recorded. The data mirrors turbidimetric platelet aggregation and presumably reflects platelet glycoprotein IIb/IIIa blockade. Ultegra RPFA-TRAP Assay results were reported as Platelet Activation Units (PAU); and • (2) Platelet-Function Analyzer PFA-100 ™ (Dade Behring, Deerfield Ill.), which is a high shear-inducing analyzer that simulates primary hemostasis after injury to a small vessel under flow conditions. The device provides a constant negative pressure that aspirates whole blood, which comes into contact with the collagen, coated membrane and then passes through the aperture. The time required to obtain occlusion of the aperture is digitally recorded. The time to aperture occlusion (the closure time) is recorded in seconds and is inversely related to the degree of shear-induced platelet activation. We used ADP/Collagen cartridges in the index study. Both PFA-100 and Ultegra assays were performed in duplicate. An electronic quality control test was performed on each instrument daily prior to performing any patient samples.
# [2] = system: VTNR (CD51/61); assay: Unstimulated whole blood flow cytometry, vitronectin receptor; details: for VTNR (CD51/61), Mean Fluorescence Intensity: unstimulated, Mean ± SD
# Experimental: as §1, §2
# (§3) Formation of platelet-leukocyte aggregates was assessed by dual labeling with pan-platelet marker (CD151), and then with CD14, the macrophage receptor for endotoxin lipopolysaccharides (PharMingen, and Coulter, San Diego, Calif., USA). The tubes were then covered with aluminum foil and incubated at 37° C. for 40 minutes with gentle rotation. After incubation, samples were immediately analyzed on a Becton Dickinson FACScan flow cytometer. The instrument was set up to measure forward light scatter, and FITC fluorescence. All parameters were collected using four-decade logarithmic amplification. The data was retrieved in list mode files and then analyzed. P selectin was expressed as percent positive cells. Other antigens were expressed as log mean fluorescence intensity.
# [3] = system: GP37 (CD165); assay: Unstimulated whole blood flow cytometry, GP37; details: Mean ± SD
# Experimental: as §1, §2, §3
# [4] = system: PAC-1 (GPIIb/IIIa); assay: TRAP-stimulated whole blood flow cytometry, PAC-1; details: Mean ± SD
# Experimental: as §1, §2, §3
# (§4) For flow cytometry (TRAP-stimulated) all of the above flow cytometry experiments were identically repeated utilizing prestimulation with 10 μmol/L TRAP for 5 minutes at 37° C. To determine statistics, a Paired Sign Test was used to define significance of differences between vehicle and E5555-treated groups. The Mann-Whitney U test was used to analyze nonparametric data. Normally distributed data were expressed as mean±standard error (m±SE), and skewed data as median (range). All P-values were two sided. All analysis was performed using the SPSS v9.0 program (SPSS Inc., Chicago, Ill.).
# [5] = system: SPAN-12; assay: TRAP-stimulated whole blood flow cytometry, SPAN-12; details: Mean ± SD
# Experimental: as §1, §2, §3, §4
# [6] = E5555 20 ng/ml, Patients (ASA + C)
# [7] = E5555 50 ng/ml, Patients (ASA + C)
# [8] = E5555 100 ng/ml, Patients (ASA + C)
# [9] = E5555 100 ng/ml, Patients (ASA)
smiles,measurement,setting,value
"Br.CCOc1cc2c(c(F)c1OCC)C(=N)N(CC(=O)c1cc(N3CCOCC3)c(OC)c(C(C)(C)C)c1)C2 [E5555, 1-(3-tert-butyl-4-methoxy-5-morpholinophenyl)-2-(5,6-diethoxy-7-fluoro-1-imino-1,3-dihydro-2H-isoindol-2-yl)ethanone hydrobromide]","Platelet Aggregation, Whole Blood Collagen 1 μg/mL","[1]; E5555 20 ng/ml, CAD patients treated with ASA + clopidogrel",13 ± 5 ohms
same,"Platelet Aggregation, Whole Blood Collagen 1 μg/mL","[1]; E5555 20 ng/ml, CAD patients treated with ASA",11 ± 4 ohms
same,"Platelet Aggregation, Whole Blood Collagen 1 μg/mL","[1]; E5555 20 ng/ml, healthy volunteers",22 ± 5 ohms
same,"Platelet Aggregation, Whole Blood Collagen 1 μg/mL","[1]; E5555 50 ng/ml, CAD patients treated with ASA + clopidogrel",12 ± 7 ohms
same,"Platelet Aggregation, Whole Blood Collagen 1 μg/mL","[1]; E5555 50 ng/ml, CAD patients treated with ASA",14 ± 6 ohms
same,"Platelet Aggregation, Whole Blood Collagen 1 μg/mL","[1]; E5555 50 ng/ml, healthy volunteers",25 ± 7 ohms
same,"Platelet Aggregation, Whole Blood Collagen 1 μg/mL","[1]; E5555 100 ng/ml, CAD patients treated with ASA + clopidogrel",14 ± 4 ohms
same,"Platelet Aggregation, Whole Blood Collagen 1 μg/mL","[1]; E5555 100 ng/ml, CAD patients treated with ASA",12 ± 5 ohms
same,"Platelet Aggregation, Whole Blood Collagen 1 μg/mL","[1]; E5555 100 ng/ml, healthy volunteers",22 ± 6 ohms
same,"vitronectin receptor expression, effect in words","[2]; overall summary, stimulation not stated",significant reduction
same,"VTNR (CD51/61), Mean Fluorescence Intensity",[2]; [6],7.9 ± 1.8 MFI
same,"VTNR (CD51/61), Mean Fluorescence Intensity","[2]; E5555 20 ng/ml, Patients (ASA)",8.4 ± 1.5 MFI
same,"VTNR (CD51/61), Mean Fluorescence Intensity","[2]; E5555 20 ng/ml, Volunteers",8.7 ± 0.6 MFI
same,"VTNR (CD51/61), Mean Fluorescence Intensity",[2]; [7],8.2 ± 1.6 MFI
same,"VTNR (CD51/61), Mean Fluorescence Intensity","[2]; E5555 50 ng/ml, Patients (ASA)",8.6 ± 2.1 MFI
same,"VTNR (CD51/61), Mean Fluorescence Intensity","[2]; E5555 50 ng/ml, Volunteers",9.1 ± 1.0 MFI
same,"VTNR (CD51/61), Mean Fluorescence Intensity",[2]; [8],9.0 ± 2.4 MFI
same,"VTNR (CD51/61), Mean Fluorescence Intensity",[2]; [9],8.3 ± 14 MFI
same,"VTNR (CD51/61), Mean Fluorescence Intensity","[2]; E5555 100 ng/ml, Volunteers",9.6 ± 1.1 MFI
same,"GP37 (CD165), Mean Fluorescence Intensity",[3]; [6],25 ± 11 MFI
same,"GP37 (CD165), Mean Fluorescence Intensity","[3]; E5555 20 ng/ml, Patients (ASA)",30 ± 7 MFI
same,"GP37 (CD165), Mean Fluorescence Intensity","[3]; E5555 20 ng/ml, Volunteers",27 ± 8 MFI
same,"GP37 (CD165), Mean Fluorescence Intensity",[3]; [7],28 ± 10 MFI
same,"GP37 (CD165), Mean Fluorescence Intensity","[3]; E5555 50 ng/ml, Patients (ASA)",27 ± 12 MFI
same,"GP37 (CD165), Mean Fluorescence Intensity","[3]; E5555 50 ng/ml, Volunteers",28 ± 7 MFI
same,"GP37 (CD165), Mean Fluorescence Intensity",[3]; [8],25 ± 12 MFI
same,"GP37 (CD165), Mean Fluorescence Intensity",[3]; [9],28 ± 11 MFI
same,"GP37 (CD165), Mean Fluorescence Intensity","[3]; E5555 100 ng/ml, Volunteers",26 ± 6 MFI
same,"PAC-1 (GPIIb/IIIa), Mean Fluorescence Intensity",[4]; [6],41 ± 5 MFI
same,"PAC-1 (GPIIb/IIIa), Mean Fluorescence Intensity","[4]; E5555 20 ng/ml, Patients (ASA)",52 ± 6 MFI
same,"PAC-1 (GPIIb/IIIa), Mean Fluorescence Intensity","[4]; E5555 20 ng/ml, Volunteers",68 ± 8 MFI
same,"PAC-1 (GPIIb/IIIa), Mean Fluorescence Intensity",[4]; [7],9 ± 1 MFI
same,"PAC-1 (GPIIb/IIIa), Mean Fluorescence Intensity","[4]; E5555 50 ng/ml, Patients (ASA)",9 ± 3 MFI
same,"PAC-1 (GPIIb/IIIa), Mean Fluorescence Intensity","[4]; E5555 50 ng/ml, Volunteers",17 ± 9 MFI
same,"PAC-1 (GPIIb/IIIa), Mean Fluorescence Intensity",[4]; [8],5 ± 2 MFI
same,"PAC-1 (GPIIb/IIIa), Mean Fluorescence Intensity",[4]; [9],4 ± 1 MFI
same,"PAC-1 (GPIIb/IIIa), Mean Fluorescence Intensity","[4]; E5555 100 ng/ml, Volunteers",7 ± 3 MFI
same,"SPAN-12, Mean Fluorescence Intensity",[5]; [6],9 ± 2 MFI
same,"SPAN-12, Mean Fluorescence Intensity","[5]; E5555 20 ng/ml, Patients (ASA)",12 ± 4 MFI
same,"SPAN-12, Mean Fluorescence Intensity","[5]; E5555 20 ng/ml, Volunteers",20 ± 3 MFI
same,"SPAN-12, Mean Fluorescence Intensity",[5]; [7],9 ± 3 MFI
same,"SPAN-12, Mean Fluorescence Intensity","[5]; E5555 50 ng/ml, Patients (ASA)",9 ± 4 MFI
same,"SPAN-12, Mean Fluorescence Intensity","[5]; E5555 50 ng/ml, Volunteers",17 ± 5 MFI
same,"SPAN-12, Mean Fluorescence Intensity",[5]; [8],11 ± 3 MFI
same,"SPAN-12, Mean Fluorescence Intensity",[5]; [9],10 ± 6 MFI
same,"SPAN-12, Mean Fluorescence Intensity","[5]; E5555 100 ng/ml, Volunteers",17 ± 4 MFI
